Measurements published in BigSolDB 2.1.

N=C(N)N.O=[N+]([O-])O
Settings	solubility (mole fraction)
in acetone, 278.15 K	0.0003
in acetone, 283.15 K	0.0005
in acetone, 288.15 K	0.0009
in acetone, 293.15 K	0.0016
in acetone, 298.15 K	0.0029
in acetone, 303.15 K	0.0052
in acetone, 308.15 K	0.0092
in acetone, 313.15 K	0.0158
in acetone, 323.15 K	0.0503
in ethanol, 278.05 K	0.003
in ethanol, 283.15 K	0.0037
in ethanol, 288.35 K	0.0043
in ethanol, 293.15 K	0.0051
in ethanol, 298.25 K	0.0062
in ethanol, 303.25 K	0.007
in ethanol, 308.25 K	0.0081
in ethanol, 313.05 K	0.0094
in ethanol, 318.05 K	0.0108
in ethanol, 323.25 K	0.0124
in ethanol, 328.35 K	0.0143
in methanol, 278.25 K	0.0063
in methanol, 283.25 K	0.0075
in methanol, 288.25 K	0.0092
in methanol, 293.25 K	0.0107
in methanol, 298.35 K	0.0126
in methanol, 303.15 K	0.0148
in methanol, 308.35 K	0.0174
in methanol, 313.15 K	0.0198
in methanol, 318.25 K	0.0227
in methanol, 323.35 K	0.0264
in methanol, 328.05 K	0.0305
in n-propanol, 278.25 K	0.0009
in n-propanol, 283.25 K	0.0013
in n-propanol, 288.25 K	0.0017
in n-propanol, 293.15 K	0.002
in n-propanol, 298.35 K	0.0029
in n-propanol, 303.15 K	0.0041
in n-propanol, 308.35 K	0.0048
in n-propanol, 313.15 K	0.0061
in n-propanol, 318.25 K	0.0077
in n-propanol, 323.15 K	0.0092
in n-propanol, 328.05 K	0.012
in water, 278.25 K	0.009
in water, 283.35 K	0.0112
in water, 288.25 K	0.0136
in water, 292.95 K	0.0157
in water, 298.25 K	0.019
in water, 303.15 K	0.0222
in water, 308.35 K	0.0262
in water, 313.05 K	0.0302
in water, 318.25 K	0.0349
in water, 323.25 K	0.0401
in water, 328.35 K	0.0463
in water, 332.85 K	0.0511
